Laboratory results as given in the supplement of paper PMC10307832.

How the values were obtained:
Assay in all cases: relative viability (nuclei count vs DMSO), 5 days (fraction); higher = more cells survive
[1] = compound: CCn1c(-c2nonc2N)nc2cnc(Oc3cccc(NC(=O)c4ccc(OCCN5CCOCC5)cc4)c3)cc21 + CC(C)C[C@H](NC(=O)[C@H](Cc1ccccc1)NC(=O)c1cnccn1)B(O)O [Bortezomib] (partner 0.002 µM)
Method in brief: (§1)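 For relative viability, nuclei counts in treated wells were divided by those in vehicle wells. Lung cancer cell lines had been pin-tool dosed in 1536-well plates the day after seeding and cultured for 5 days, then fixed and stained in one step (final 0.05% Triton X-100, 1% formaldehyde, 1 ug/ml Hoechst) and imaged at 4×. Doses were one drug alone or a fixed anchor-drug dose plus five library-drug doses (not always all listed) in √10 steps, and values are duplicate-plate medians.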

Mirin + Lapatinib = compound: N=C1NC(=O)/C(=C/c2ccc(O)cc2)S1 [Mirin] + CS(=O)(=O)CCNCc1ccc(-c2ccc3ncnc(Nc4ccc(OCc5cccc(F)c5)c(Cl)c4)c3c2)o1 [Lapatinib] (partner 2 µM)
Method in brief: as §1

Mirin + Crizotinib = compound: N=C1NC(=O)/C(=C/c2ccc(O)cc2)S1 [Mirin] + C[C@@H](Oc1cc(-c2cnn(C3CCNCC3)c2)cnc1N)c1c(Cl)ccc(F)c1Cl [Crizotinib] (partner 1 µM)
Method in brief: as §1

Mirin + Foretinib = compound: N=C1NC(=O)/C(=C/c2ccc(O)cc2)S1 [Mirin] + COc1cc2c(Oc3ccc(NC(=O)C4(C(=O)Nc5ccc(F)cc5)CC4)cc3F)ccnc2cc1OCCCN1CCOCC1 [Foretinib] (partner 0.25 µM)
Method in brief: as §1

| Cell Line | relative viability ([1]; first compound 0.04 µM) | relative viability ([1]; first compound 0.1265 µM) | relative viability ([1]; first compound 0.4 µM) | relative viability ([1]; first compound 1.265 µM) | relative viability ([1]; first compound 4 µM) | relative viability (Mirin + Lapatinib; first compound 0.25 µM) | relative viability (Mirin + Lapatinib; first compound 0.7906 µM) | relative viability (Mirin + Lapatinib; first compound 2.5 µM) | relative viability (Mirin + Lapatinib; first compound 7.906 µM) | relative viability (Mirin + Lapatinib; first compound 25 µM) | relative viability (Mirin + Crizotinib; first compound 0.25 µM) | relative viability (Mirin + Crizotinib; first compound 0.7906 µM) | relative viability (Mirin + Crizotinib; first compound 2.5 µM) | relative viability (Mirin + Crizotinib; first compound 7.906 µM) | relative viability (Mirin + Crizotinib; first compound 25 µM) | relative viability (Mirin + Foretinib; first compound 0.25 µM) | relative viability (Mirin + Foretinib; first compound 0.7906 µM) | relative viability (Mirin + Foretinib; first compound 2.5 µM) | relative viability (Mirin + Foretinib; first compound 7.906 µM) | relative viability (Mirin + Foretinib; first compound 25 µM) |
| --- | --- | --- | --- | --- | --- | --- | --- | --- | --- | --- | --- | --- | --- | --- | --- | --- | --- | --- | --- | --- |
| HCC-44 | 0.889 | 0.902 | 0.56 | 0.305 | 0.248 | 1.07 | 1.12 | 1.05 | 1.04 | 1.28 | 0.817 | 0.85 | 0.783 | 0.795 | 1.07 |  |  |  |  |  |
| NCI-H1944 |  |  |  |  |  | 0.904 |  | 0.774 | 0.747 | 0.486 | 0.971 |  | 1.04 | 1.1 | 0.957 | 0.824 | 0.95 | 0.888 | 0.814 | 0.557 |
| NCI-H2342 |  |  |  |  |  |  |  |  |  |  |  |  |  |  |  | 1.14 | 1.11 | 1.15 | 1.03 | 0.861 |
| NCI-H358 |  |  |  |  |  | 0.466 | 0.514 | 0.489 | 0.52 | 0.379 | 0.553 | 0.678 | 0.536 | 0.329 | 0.243 | 0.734 | 0.742 | 0.739 | 0.565 | 0.406 |
| LCLC-103H | 1.08 | 1.11 | 0.932 | 0.651 | 0.716 |  |  |  |  |  | 1.1 | 0.978 | 1.01 | 1.17 | 1.25 | 0.909 | 0.825 | 0.839 | 0.955 | 0.8 |
| NCI-H1792 | 1.09 | 1 |  | 0.631 | 0.817 | 0.891 | 0.814 | 0.97 | 0.829 | 0.942 | 1.02 | 1.01 | 1.05 | 0.864 | 0.963 |  |  |  |  |  |
| NCI-H1793 |  |  |  |  |  | 0.899 | 0.413 | 0.914 | 0.881 | 0.652 |  |  |  |  |  | 0.731 |  | 0.739 | 0.777 | 0.559 |
| SW 900 |  |  |  |  |  |  |  |  |  |  |  |  |  |  |  | 1.02 | 1.19 | 1.1 | 0.866 | 0.827 |
| SK-MES-1 |  |  |  |  |  | 0.461 | 0.469 | 0.544 | 0.53 | 0.624 | 1.03 | 1.14 | 1 | 1.04 | 1.19 | 0.859 | 1.07 | 0.914 | 0.945 | 1.31 |
| LK-2 |  |  |  |  |  | 0.787 |  | 0.879 | 0.593 | 0.496 | 0.241 |  | 0.238 | 0.24 | 0.199 | 1.24 |  | 1.02 | 0.977 | 0.586 |
| NCI-H441 | 0.484 | 0.895 | 0.458 | 0.42 | 0.374 |  |  |  |  |  | 0.856 | 0.794 | 0.701 | 0.365 | 0.706 | 1.02 | 1.16 | 0.995 | 1.09 | 1.05 |
| NCI-H1395 |  |  |  |  |  | 0.947 |  | 1.08 | 0.934 | 0.853 |  |  |  |  |  | 0.908 | 0.994 | 1.03 | 0.977 | 1.14 |
